In brackets after ≈: the same amount, converted by molar mass.
Columns and labels:
Bacillus cereus = test: M.I.C. by broth dilution method (NCCLS 1988), gram-positive bacteria; assay type: cell-based; conditions: in vitro broth dilution
Outline: (§1)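 MIC values were obtained by broth dilution following NCCLS 1988 against gram-positive strains including Bacillus subtilus ATCC 6633, Streptococcus faecium and Staphylococcus ATCC 6538. Enrofloxacin served as reference. Compound stocks were 1 000 μg/ml in aqueous KOH or KOH/DMF.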

[1] = tested on: Bacillus subtilus (ATCC 6633); test: as above; assay type: cell-based; conditions: ATCC6633, in vitro broth dilution
Outline: as §1

[2] = tested on: Micrococcus Luteus (ATCC 9341); test: as above; assay type: cell-based; conditions: ATCC9341, in vitro broth dilution, read-out: M.I.C. values Microc. Luteus
Outline: as §1

[3] = tested on: Staph. aureus (ATCC 29737); test: as above; assay type: cell-based; conditions: Staphylococcus aureus, ATCC29737, in vitro broth dilution
Outline: as §1

[4] = tested on: Staph. epidermidis (ATCC 12228); test: as above; assay type: cell-based; conditions: Staphylococcus epidermidis, ATCC12228, in vitro broth dilution
Outline: as §1

[5] = tested on: Staphylococcus (ATCC 6538); test: as above; assay type: cell-based; conditions: ATCC6538, in vitro broth dilution, read-out: M.I.C. values Staph. (ATCC 6538)
Outline: as §1

Streptococcus faecium = test: as above; assay type: cell-based; conditions: Enterococcus faecium, in vitro broth dilution, read-out: M.I.C. values Streptoc. faecium
Outline: as §1

[6] = tested on: gram-negative bacteria (E. coli, KL. Pnemonia, Bordetella bronchiseptic, Salmonella typhi, Salmonella spp., Proteus spp., Pasterulla Duck, Pasterulla Camel); test: M.I.C. by broth dilution method, gram-negative bacteria; assay type: cell-based; conditions: eleven gram-negative strains
Method: The antibacterial activity of the present compounds was investigated by in vitro evaluation of their M.I.C. (Minimum Inhibitory Concentration) values. The evaluation was conducted in complete accordance with the “Broth dilution method”, as outlined by the U.S. National Committee for Clinical Laboratory Standards “NCCLS 1988”.
Solutions of the present compounds were prepared by dissolving 0.01 g of a test compound in either 10% KOH (aq) or a 10% KOH/DMF mixture, after which sterile, distilled H2O was added up to a total volume of 10 ml, thereby yielding a test compound concentration of 1 000 μg/ml.
In the same manner as above, the M.I.C. values of the present compounds JA 3, JA 5, JA 12, JA 42, JA 73 and enrofloxacin as reference compound were investigated also on gram-negative bacteria. The gram-negative bacteria used were E. coli (ATCC 25922), E. Coli (ATCC 8739), E. Coli (ATCC 10536), E. Coli Pathogenic, KL. Pnemonia (ATCC 10031), Bordetella bronchiseptic (ATCC 4617), Salmonella typhi, Salmonella spp., Proteus spp., Pasterulla Duck and Pasterulla Camel.

M. gallisepticum = test: M.I.C. against Mycoplasma in microtitre plates (Tanner and Wu); assay type: cell-based; conditions: Mycoplasmoides gallisepticum; in vitro, microtitre plates
Method: The M.I.C. values of the compounds JA 1, JA 3, JA 5, JA 12, JA 42 and JA 43 were determined in vitro against M. gallisepticum. Enrofloxacin, tylosin and oxytetracyclin were used as reference compounds. The tested compounds were all stored and applied as solutions in distilled water. The M.I.C. evaluation was performed in microtitre plates, and the methodology employed was basically that of Tanner and Wu (Avian Disease, 36:714-717 (1992)).

[7] = tested on: E. mitis, E. hagani, E. praecox, E. acervulina, E. maxima, E. necatrix, E. tenella and E. brunetti; test: Prophylactic anticoccidial effect, additional trials in chickens of Habbared X breed (8 Eimeria strains); assay type: in vivo; conditions: B700 100 ppm
Method: In yet another evaluation of the prophylactic anticoccidial effect of the present compounds, additional trials on chickens of Habbared X breed were performed. The same test protocol as the one previously employed for this breed of chickens was used, albeit with the following following modifications: • i) On day 8 after hatch, the chickens received feed containing B700 (100 ppm), JA 3 (200 ppm) or Coxistac (100 ppm); • ii) On day 11 after hatch, the chickens were infected orally by oocysts containing a mixture of 8 mature sporulated strains, namely E. mitis, E. hagani, E. praecox, E. acervulina, E. maxima, E. necatrix, E. tenella and E. brunetti. The results of this evaluation were slightly unexpected.

[8] = tested on: E. mitis, E. hagani, E. praecox, E. acervulina, E. maxima, E. necatrix, E. tenella and E. brunetti; test: Prophylactic anticoccidial effect in chickens of Arbor Aker breed (8 Eimeria strains); assay type: in vivo; conditions: 100 ppm in feed from day 3, infected day 7
Method: JA 12, JA 39 and JA 42 was also evaluated in chickens of Arbor Aker breed. These trials were conducted by using basically the same test protocol as that used for the chickens of Habbared X breed, albeit with the following modifications:
• i) On day 3 after hatch, the tested groups of chickens received feed containing 100 ppm of JA 12, JA 39, JA 42 or Coxistac (60 ppm); • ii) On day 7 after hatch, the chickens were infected orally by oocysts containing a mixture of 8 mature sporulated strains, namely E. mitis, E. hagani, E. praecox, E. acervulina, E. maxima, E. necatrix, E. tenella and E. brunetti.

[9] = tested on: Eimeria acervulina, E. maxima, E. necatrix, E. tenella and E. brunetti; test: Prophylactic anticoccidial activity in chickens of Habbared X breed (5 Eimeria strains); assay type: in vivo
Method: The anticoccidial activity of the present compounds as prophylactic agents was evaluated in vivo on […] one day old (1 day after hatch) chickens of Habbared X breed. The chickens were divided into four groups of 20 birds each, and each group was located in a separate pen (1 m×1 m). The chickens were then fed with unmedicated food up to day 7 after hatch. Fresh water was supplied ad libitum .
On day 8 after hatch, the four groups were fed as follows (1 ppm=1 mg drug/kg feed): • Group #1: feed containing JA 39 (100 ppm); • Group #2: feed containing JA 42 (100 ppm); • Group #3: feed containing Coxistac (60 ppm), a known anticoccidial agent (see U.S. Pat. No. 3,857,948);
Group #4: feed containing no drug (control group).
The chickens were fed as above on day 8 and 9 after hatch. On day 10 after hatch, each chicken was infected orally by 6 000-7 000 oocysts containing a mixture of 5 mature sporulated strains, namely Eimeria acervulina, E. maxima, E. necatrix, E. tenella and E. brunetti. The groups #1-3 received drug as above from day 10 to 21 after hatch.
From day 14 to 21 after hatch, fresh fecal droplets were collected and examined daily. The average number of oocysts/g faeces was then calculated in accordance with the so-called Mc-Master technique (Soulsby, E. J., Helminths, Arthropods & Protozoa of domesticated animals, p. 789, 6th Ed., Williams & Wilkins Co. Baltimore (USA), Tindall & Cassell Ltd., London, 1968). The final weight of and mean total amount of feed consumed by each bird were also examined, and the results are summarized in Table 8 hereinbelow.

Row | SMILES | MIC (Bacillus cereus) [µg/mL] | MIC [1] [µg/mL] | MIC [2] [µg/mL] | MIC [3] [µg/mL] | MIC [4] [µg/mL] | MIC [5] [µg/mL] | MIC (Streptococcus faecium) [µg/mL] | antibacterial activity against gram-negative bacteria compared to that of enrofloxacin [6] | MIC (M. gallisepticum) [µg/mL] | prophylactic anticoccidial effect (in words) [8] | further results
1 | O=C(O)c1cn(C2CC2)c2cc(N3CCN(S(=O)(=O)c4ccc([N+](=O)[O-])cc4)CC3)c(F)cc2c1=O [JA 3, 1-cyclopropyl-6-fluoro-7-{4-[(4-nitrophenyl)sulfonyl]-1-piperazinyl}-4-oxo-1,4-dihydro-3-quinolinecarboxylic acid] | 0.06 (≈ 0.116 µM) | 0.06 (≈ 0.116 µM) | 1 (≈ 1.94 µM) | 0.06 (≈ 0.116 µM) | 0.01 (≈ 0.0194 µM) | 0.06 (≈ 0.116 µM) | 0.25 (≈ 0.484 µM) | roughly equal to that of enrofloxacin | 0.06 (≈ 0.116 µM) | – | anticoccidial activity (in words) ([7]; JA 3 200 ppm in feed from day 8, infected day 11): significant anticoccidial activity; increased body weight gain as compared to the Coxistac treated group ([7]; JA 3 200 ppm, Coxistac 100 ppm): approximately 10%; total number of oocysts during the treatment compared to Coxistac group ([7]; JA 3 200 ppm, Coxistac 100 ppm): higher than for the group treated with Coxistac
2 | O=C(O)c1cn(C2CC2)c2cc(N3CCN(S(=O)(=O)c4ccc5ccccc5c4)CC3)c(F)cc2c1=O [JA 5, 1-cyclopropyl-6-fluoro-7-[4-(2-naphthylsulfonyl)-1-piperazinyl]-4-oxo-1,4-dihydro-3-quinolinecarboxylic acid] | 0.03 (≈ 0.0575 µM) | 0.008 (≈ 0.0153 µM) | 0.5 (≈ 0.959 µM) | 0.06 (≈ 0.115 µM) | 0.01 (≈ 0.0192 µM) | 0.06 (≈ 0.115 µM) | 0.12 (≈ 0.23 µM) | roughly equal to that of enrofloxacin | 0.12 (≈ 0.23 µM) | – | –
3 | O=C(O)c1cn(C2CC2)c2cc(N3CCN(S(=O)(=O)C(F)(F)F)CC3)c(F)cc2c1=O [JA 12, 1-cyclopropyl-6-fluoro-4-oxo-7-{4-[(trifluoromethyl)sulfonyl]-1-piperazinyl}-1,4-dihydro-3-quinolinecarboxylic acid] | 0.06 (≈ 0.129 µM) | 0.12 (≈ 0.259 µM) | 0.5 (≈ 1.08 µM) | 0.12 (≈ 0.259 µM) | 0.12 (≈ 0.259 µM) | 0.03 (≈ 0.0647 µM) | 1 (≈ 2.16 µM) | roughly equal to that of enrofloxacin | 0.12 (≈ 0.259 µM) | very similar to that of JA 39 | –
4 | O=C(O)c1cn(C2CC2)c2cc(N3CCN(c4cccc(Cl)n4)CC3)c(F)cc2c1=O [JA 42, 7-[4-(6-chloro-2-pyridinyl)-1-piperazinyl]-1-cyclopropyl-6-fluoro-4-oxo-1,4-dihydro-3-quinolinecarboxylic acid] | 0.06 (≈ 0.135 µM) | 0.01 (≈ 0.0226 µM) | 1 (≈ 2.26 µM) | 0.03 (≈ 0.0677 µM) | 0.008 (≈ 0.0181 µM) | 0.06 (≈ 0.135 µM) | 0.25 (≈ 0.564 µM) | roughly equal to that of enrofloxacin | 0.25 (≈ 0.564 µM) | essentially the same as those reported for the trials with the chickens of Habbared X breed | anticoccidial effect (in words) ([9]; chickens of Habbared X breed, 100 ppm in feed): excellent anticoccidial effect; Average number of Eimeria spp. oocysts/g faeces, day after hatch 14 ([9]; day 14 after hatch, drug in feed (JA 39, JA 42 100 ppm; Coxistac 60 ppm), infected day 10): 0.0 oocysts/g faeces; Average number of Eimeria spp. oocysts/g faeces, day after hatch 15 ([9]; day 15 after hatch, drug in feed (JA 39, JA 42 100 ppm; Coxistac 60 ppm), infected day 10): 4000 oocysts/g faeces; Average number of Eimeria spp. oocysts/g faeces, day after hatch 16 ([9]; day 16 after hatch, drug in feed (JA 39, JA 42 100 ppm; Coxistac 60 ppm), infected day 10): 6000 oocysts/g faeces; Average number of Eimeria spp. oocysts/g faeces, day after hatch 17 ([9]; day 17 after hatch, drug in feed (JA 39, JA 42 100 ppm; Coxistac 60 ppm), infected day 10): 3000 oocysts/g faeces; Average number of Eimeria spp. oocysts/g faeces, day after hatch 18 ([9]; day 18 after hatch, drug in feed (JA 39, JA 42 100 ppm; Coxistac 60 ppm), infected day 10): 0.0 oocysts/g faeces; Average number of Eimeria spp. oocysts/g faeces, day after hatch 19 ([9]; day 19 after hatch, drug in feed (JA 39, JA 42 100 ppm; Coxistac 60 ppm), infected day 10): 0.0 oocysts/g faeces; Average number of Eimeria spp. oocysts/g faeces, day after hatch 21 ([9]; day 21 after hatch, drug in feed (JA 39, JA 42 100 ppm; Coxistac 60 ppm), infected day 10): 0.0 oocysts/g faeces; Mean body weight ([9]; final weight, infected chickens, drug in feed (JA 39, JA 42 100 ppm; Coxistac 60 ppm)): 73.7 g; Mean amount of feed consumed ([9]; mean total feed per bird, infected chickens, drug in feed (JA 39, JA 42 100 ppm; Coxistac 60 ppm)): 91 g; Average number of Eimeria spp. oocysts/g faeces, Total ([9]; total of days 14-21 after hatch, drug in feed (JA 39, JA 42 100 ppm; Coxistac 60 ppm)): 13000 oocysts/g faeces
5 | O=C(O)c1cn(C2CC2)c2cc(NCC3CCCO3)c(F)cc2c1=O (stereo not drawn) [JA 73, 1-cyclopropyl-6-fluoro-4-oxo-7-[(tetrahydro-2-furanylmethyl)amino]-1,4-dihydro-3-quinolinecarboxylic acid] | 0.06 (≈ 0.173 µM) | 0.12 (≈ 0.346 µM) | 2 (≈ 5.77 µM) | 0.12 (≈ 0.346 µM) | 0.12 (≈ 0.346 µM) | 0.06 (≈ 0.173 µM) | 0.5 (≈ 1.44 µM) | roughly equal to that of enrofloxacin | – | – | –
